# Source: US11702428B2, “Chemical compounds as inhibitors of interleukin-1 activity” (Genentech, Inc., priority 2017, dated 2023)
# Where two headings read alike, the source gives them in different places.
# How the values were obtained:
# [1] = test system: LPS and nigericin stimulated cells; assay: cells; assay type: cell-based; conditions: for IC50: Homo sapiens, read-out: CTG protective IC50
# Description: Viability of compound treated cells is measured using CellTiter-Glo® assay (Promega, Madison, Wis.) that measures the ATP content of cells which is proportional to the number of live cells within a well. This is a counter-screen to establish that the reduction of IL-1β levels in LPS and nigericin stimulated and compound treated cells is not due to cytotoxicity, but rather through the inhibition of the inflammasome pathway. Compounds inhibiting NRLP3 inflammasome activation ultimately increase the viability of LPS and nigericin stimulated cells by blocking NLRP3 mediated pyroptosis that would otherwise lead to cell lysis.
# [2] = Human microsomal stability (Eh); assay type: in vitro ADME; conditions: hepatic extraction ratio; 0.5 mg/mL microsomal protein, 1 μM, NADPH; liver blood flow 20.7 mL/min/kg
# Description: The stock solutions of test article and positive control were prepared at a concentration of 10 mM using DMSO as diluents. All stock solutions were then diluted to working concentrations at 0.25 mM with 70% acetonitrile. The cofactor used in this study was NADPH regenerating system, that was composed of 6.5 mM NADP, 16.5 mM G-6-P, 3 U/mL G-6-P D. The quench reagent was consisted of acetonitrile containing tolbutamide and propanolol (serve as internal standard). Incubation mixtures containing 0.5 mg/mL liver microsomal protein and […] test article/positive control in 100 mM potassium phosphate buffer.
# The 0-minute samples were prepared by addition of an 80 μL aliquot of each incubation mixture to 300 μL quench reagent to precipitate proteins. The samples were vortexed, and then a 20 μL aliquot of the NADPH regenerating system was added in. The reaction was initiated by addition of 80 μL of the NADPH regenerating system to 320 μL of each incubation mixture. The final incubation conditions achieved in 400 μL are: 0.5 mg/mL microsomal protein, 1 μM test article/positive control, 1.3 mM NADP, 3.3 mM glucose 6 phosphate, 0.6 U/mL glucose 6 phosphate dehydrogenase. The mixtures were incubated in a 37° C. water bath with gentle shaking. A 100 μL aliquot of each mixture was removed at 10, 30, 90 minutes to a clean 96-well plate which contains 300 μL quench reagent to precipitate proteins, and centrifuged (4000×g, 10 min). 80 μL of supernatant are taken into 96-well assay plates pre-added with 160 μL ultrapure water, and then analyzed by LC-MS/MS. Hepatic extraction ratio (Eh) values were calculated from measured in vitro clearance assuming a human liver blood flow of 20.7 mL/min/kg. Eh values of <0.3 are indicative of compounds with favorable metabolic stability.
# NLRP3 inflammasome [3] = molecular target: T1, NLRP3 inflammasome (Homo sapiens, UniProt Q96P20); assay: NLRP3 inflammasome activation assay in Kupffer cells (LPS priming, nigericin), IL-1β/IL-18 by ELISA; assay type: cell-based; conditions: KCs; for IC50: LPS, nigericin, read-out: KC IL-1β IC50
# T1 sequence (Q96P20 whole entry): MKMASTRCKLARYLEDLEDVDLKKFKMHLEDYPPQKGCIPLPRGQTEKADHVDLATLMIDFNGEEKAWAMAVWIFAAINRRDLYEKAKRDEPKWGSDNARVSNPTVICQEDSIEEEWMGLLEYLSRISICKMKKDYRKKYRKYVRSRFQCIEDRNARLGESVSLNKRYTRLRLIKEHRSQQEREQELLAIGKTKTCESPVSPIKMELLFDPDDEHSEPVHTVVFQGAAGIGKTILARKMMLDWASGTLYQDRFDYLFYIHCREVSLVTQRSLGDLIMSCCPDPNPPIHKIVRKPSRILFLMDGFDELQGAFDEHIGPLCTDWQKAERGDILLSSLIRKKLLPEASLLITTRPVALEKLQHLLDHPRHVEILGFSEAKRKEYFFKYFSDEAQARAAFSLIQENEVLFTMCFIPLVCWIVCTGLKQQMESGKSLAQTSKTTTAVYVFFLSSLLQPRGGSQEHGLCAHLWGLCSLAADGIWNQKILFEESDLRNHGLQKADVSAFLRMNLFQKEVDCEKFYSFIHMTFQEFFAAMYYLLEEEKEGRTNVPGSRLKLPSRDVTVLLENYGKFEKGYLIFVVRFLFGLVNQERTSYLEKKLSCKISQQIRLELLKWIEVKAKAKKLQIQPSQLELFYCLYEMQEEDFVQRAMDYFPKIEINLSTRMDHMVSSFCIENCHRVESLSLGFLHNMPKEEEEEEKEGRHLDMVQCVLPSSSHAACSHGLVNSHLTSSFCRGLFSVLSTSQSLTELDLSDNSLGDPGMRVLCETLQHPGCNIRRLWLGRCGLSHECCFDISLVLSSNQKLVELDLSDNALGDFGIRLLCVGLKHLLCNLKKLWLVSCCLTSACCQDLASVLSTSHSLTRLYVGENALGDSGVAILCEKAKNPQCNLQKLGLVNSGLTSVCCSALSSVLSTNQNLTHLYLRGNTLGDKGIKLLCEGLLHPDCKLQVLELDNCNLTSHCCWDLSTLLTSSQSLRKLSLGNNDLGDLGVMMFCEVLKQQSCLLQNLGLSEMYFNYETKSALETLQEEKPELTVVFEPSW
# Excerpt: (§1) Some of the following assays were used to determine the inhibitory activity of the compounds on the NLRP3 inflammasome using a common inflammasome activation stimuli-nigericin.
# Human Kupffer cells (KCs), specialized liver macrophages residing in […], were obtained by gradient isolation from liver specimens harvested post-mortem by Samsara Sciences. Cells were obtained through an IRB approved donor program by Samsara Sciences and all donors tested negative for bacterial and viral infections.
# (§2) Cells were then stimulated with 10 uM Nigericin (Sigma Aldrich; InvivoGen) for 1.5 h. Plates were centrifuged at 1,500 rpm for 3 minutes to pellet cells and supernatant was transferred into new plates for subsequent experiments.
# (§3) For ELISA assays cells were seeded into 96-well plates. Post study, supernatants were removed and the levels of mature IL-1β, IL-18 and TNFα (Quantikine ELISA, R&D systems) were measured in cell conditioned media by ELISA according to manufacturer's instructions.
# NLRP3 inflammasome [4] = molecular target: T1, NLRP3 inflammasome; assay: NLRP3 inflammasome activation assay in PBMCs (LPS priming, nigericin), IL-1β by ELISA; assay type: cell-based; parameters: Human peripheral blood mononuclear cells (PBMCs); host or cells: primary human PBMCs from healthy donors; conditions: LPS, nigericin; for IC50: read-out: PBMC IL-1β IC50
# Description: as §1
# Human peripheral blood mononuclear cells (PBMCs), consisting of lymphocytes (T, B and NK cells), monocytes and dendritic cells, were freshly isolated from human peripheral blood from healthy donors. Cells were obtained through an IRB approved donor program by iXCells Biotechnologies where all the donors were tested for bacterial and viral infections. Cells were purified from peripheral blood using ficoll gradient centrifugation.
# as §2, §3
# Pharmacokinetics in mice = assay type: in vivo, CD-1 Mice; conditions: for Cmax / clearance / half-life / AUC(0-t) / Vd: mouse, plasma; for AUC(0-t): read-out: AUC 0-24 hr; for Vd: read-out: Vz
# Description: The intravenous dosing solutions were administered at 1 mg/kg and were made by dissolving the test article into the formulations shown below. The oral dosing suspensions or solutions were administered at 10 mg/kg and were made by dissolving the test article in the formulations shown below. Blood samples were collected into tubes containing either K2EDTA or sodium heparin and kept chilled on ice block or wet ice immediately following collection and during processing. After centrifugation, the resulting plasma samples were stored in a freezer at −80° C. until samples were analyzed. Pharmacokinetic parameters were determined following measurement of compound concentrations in plasma using standard bioanalytical methods at timepoints ranging from 0 to 24 hours.
# [5] = LPS and nigericin stimulated cells, CellTiter-Glo
# [6] = Male CD-1 Mice, PO, 10 mg/kg, 0.5% MC
# [7] = Female CD-1 Mice, PO, 10 mg/kg, 0.5% MC, 0.25% Tween 80
compound,measurement,setting,value
CN(C)C1COc2c(S(=O)(=O)NC(=O)Nc3c4c(cc5c3CCC5)CCC4)cnn2C1 (stereo not drawn),IC50,[1],< 100 nM
same,Human Microsomal Stability (Eh),[2],0.2
CC1COc2c(S(=O)(=O)NC(=O)Nc3c4c(cc5c3CCC5)CCC4)cnn2C1 (stereo not drawn),IC50,NLRP3 inflammasome [3],< 100 nM
same,IC50,[1]; [5],< 100 nM
same,Human Microsomal Stability (Eh),[2],0.4
same,IC50,NLRP3 inflammasome [4],< 100 nM
O=C(Nc1c2c(cc3c1CCC3)CCC2)NS(=O)(=O)c1cnn2c1NCCC2,IC50,NLRP3 inflammasome [3],< 100 nM
same,IC50,[1]; [5],< 100 nM
same,Human Microsomal Stability (Eh),[2],0.2
same,IC50,NLRP3 inflammasome [4],< 100 nM
O=C(Nc1c2c(cc3c1CCC3)CCC2)NS(=O)(=O)c1cc2n(n1)CCNC2,IC50,[1]; [5],< 100 nM
same,IC50,NLRP3 inflammasome [4],100 to 1000 nM
COCC1COc2c(S(=O)(=O)NC(=O)Nc3c4c(cc5c3CCC5)CCC4)cnn2C1 (stereo not drawn),IC50,[1]; [5],< 100 nM
same,IC50,NLRP3 inflammasome [4],100 to 1000 nM
CN1CCn2nc(S(=O)(=O)NC(=O)Nc3c4c(cc5c3CCC5)CCC4)cc2C1,IC50,[1]; [5],100 to 1000 nM
same,IC50,NLRP3 inflammasome [4],1000 to 10000 nM
O=C(Nc1c2c(cc3c1CCC3)CCC2)NS(=O)(=O)c1ncn2c1OCCC2,IC50,[1]; [5],100 to 1000 nM
same,IC50,NLRP3 inflammasome [4],100 to 1000 nM
O=C(Nc1c2c(cc3c1CCC3)CCC2)NS(=O)(=O)c1cnn2c1OCC(N1CCCC1)C2 (stereo not drawn),IC50,[1]; [5],< 100 nM
same,Human Microsomal Stability (Eh),[2],0.6
same,IC50,NLRP3 inflammasome [4],< 100 nM
CCN[C@H]1COc2c(S(=O)(=O)NC(=O)Nc3c4c(cc5c3CCC5)CCC4)cnn2C1,IC50,[1]; [5],< 100 nM
same,Human Microsomal Stability (Eh),[2],0.2
same,IC50,NLRP3 inflammasome [4],< 100 nM
CCO[C@@H]1COc2c(S(=O)(=O)NC(=O)Nc3c4c(cc5c3CCC5)CCC4)cnn2C1,IC50,[1]; [5],100 to 1000 nM
same,IC50,NLRP3 inflammasome [4],100 to 1000 nM
CC(C)(C)OC(=O)NCC1COc2c(S(=O)(=O)NC(=O)Nc3c4c(cc5c3CCC5)CCC4)cnn2C1 (stereo not drawn),IC50,[1]; [5],< 100 nM
same,IC50,NLRP3 inflammasome [4],< 100 nM
O=C(Nc1c2c(cc3c1CCC3)CCC2)NS(=O)(=O)c1cnn2c1OCC(N1CCC1)C2 (stereo not drawn),IC50,[1]; [5],< 100 nM
same,IC50,NLRP3 inflammasome [4],< 100 nM
CNC1COc2c(S(=O)(=O)NC(=O)Nc3c4c(cc5c3CCC5)CCC4)cnn2C1 (stereo not drawn),IC50,[1],< 100 nM
same,Human Microsomal Stability (Eh),[2],0.1
Cc1ccc2cccnc2c1NC(=O)NS(=O)(=O)c1cnn2c1OCCC2,CTG protective IC50,[1]; [5],No Curve
same,PBMC IL-1β IC50,NLRP3 inflammasome [4],No Curve
CN[C@H]1COc2c(S(=O)(=O)NC(=O)Nc3c4c(c(F)c5c3CCC5)CCC4)cnn2C1,IC50,[1]; [5],< 100 nM
same,Human Microsomal Stability (Eh),[2],0.2
same,IC50,NLRP3 inflammasome [4],< 100 nM
CC1(C)COc2c(S(=O)(=O)NC(=O)Nc3c4c(cc5c3CCC5)CCC4)cnn2C1 [A],Bioavailability (% F),Pharmacokinetics in mice; [6],64 % F
same,Cmax,"Pharmacokinetics in mice; Male CD-1 Mice, IV, 1 mg/kg",9200 ng/mL
same,clearance,"Pharmacokinetics in mice; Male CD-1 Mice, IV, 1 mg/kg",0.667 mL/min/kg
same,half-life,"Pharmacokinetics in mice; Male CD-1 Mice, IV, 1 mg/kg",2.8 h
same,AUC(0-t),"Pharmacokinetics in mice; Male CD-1 Mice, IV, 1 mg/kg",29200 ng·h/mL
same,Vd,"Pharmacokinetics in mice; Male CD-1 Mice, IV, 1 mg/kg",0.137 L/kg
same,Cmax,Pharmacokinetics in mice; [6],22700 ng/mL
same,half-life,Pharmacokinetics in mice; [6],3.4 h
same,AUC(0-t),Pharmacokinetics in mice; [6],186000 ng·h/mL
O=C(Nc1c2c(cc3c1CCC3)CCC2)NS(=O)(=O)c1cnn2c1OCC1(CC1)C2 [B],Bioavailability (% F),Pharmacokinetics in mice; [6],100 % F
same,Cmax,"Pharmacokinetics in mice; Male CD-1 Mice, IV, 1 mg/kg",11700 ng/mL
same,clearance,"Pharmacokinetics in mice; Male CD-1 Mice, IV, 1 mg/kg",0.833 mL/min/kg
same,half-life,"Pharmacokinetics in mice; Male CD-1 Mice, IV, 1 mg/kg",1.9 h
same,AUC(0-t),"Pharmacokinetics in mice; Male CD-1 Mice, IV, 1 mg/kg",20200 ng·h/mL
same,Vd,"Pharmacokinetics in mice; Male CD-1 Mice, IV, 1 mg/kg",0.13 L/kg
same,Cmax,Pharmacokinetics in mice; [6],63000 ng/mL
same,half-life,Pharmacokinetics in mice; [6],1.9 h
same,AUC(0-t),Pharmacokinetics in mice; [6],256000 ng·h/mL
CN(C)[C@H]1COc2c(S(=O)(=O)NC(=O)Nc3c4c(cc5c3CCC5)CCC4)cnn2C1 [C],Bioavailability (% F),Pharmacokinetics in mice; [6],33 % F
same,Cmax,"Pharmacokinetics in mice; Male CD-1 Mice, IV, 1 mg/kg",5290 ng/mL
same,clearance,"Pharmacokinetics in mice; Male CD-1 Mice, IV, 1 mg/kg",5.67 mL/min/kg
same,half-life,"Pharmacokinetics in mice; Male CD-1 Mice, IV, 1 mg/kg",1.3 h
same,AUC(0-t),"Pharmacokinetics in mice; Male CD-1 Mice, IV, 1 mg/kg",2990 ng·h/mL
same,Vd,"Pharmacokinetics in mice; Male CD-1 Mice, IV, 1 mg/kg",0.64 L/kg
same,Cmax,Pharmacokinetics in mice; [6],7530 ng/mL
same,half-life,Pharmacokinetics in mice; [6],1 h
same,AUC(0-t),Pharmacokinetics in mice; [6],9950 ng·h/mL
"O=C(Nc1c2c(cc3c1CCC3)CCC2)NS(=O)(=O)c1cnn2c1OCC1(COC1)C2 [Compound 5, N-((1,2,3,5,6,7-hexahydro-s-indacen-4-yl)carbamoyl)-5′,7′-dihydrospiro[oxetane-3,6′-pyrazolo[5,1-b][1,3]oxazine]-3′-sulfonamide]",IL-1β production in Kupffer cells (FIG. 2),NLRP3 inflammasome [3],inhibition
same,IL-18 production in Kupffer cells (FIG. 2),NLRP3 inflammasome [3],inhibition
CN[C@H]1COc2c(S(=O)(=O)NC(=O)Nc3c4c(cc5c3CCC5)CCC4)cnn2C1 [D],Bioavailability (% F),Pharmacokinetics in mice; [7],69 % F
same,Cmax,"Pharmacokinetics in mice; Female CD-1 Mice, IV, 1 mg/kg",3310 ng/mL
same,clearance,"Pharmacokinetics in mice; Female CD-1 Mice, IV, 1 mg/kg",5 mL/min/kg
same,half-life,"Pharmacokinetics in mice; Female CD-1 Mice, IV, 1 mg/kg",1.6 h
same,AUC(0-t),"Pharmacokinetics in mice; Female CD-1 Mice, IV, 1 mg/kg",3400 ng·h/mL
same,Vd,"Pharmacokinetics in mice; Female CD-1 Mice, IV, 1 mg/kg",0.69 L/kg
same,Cmax,Pharmacokinetics in mice; [7],13700 ng/mL
same,half-life,Pharmacokinetics in mice; [7],1.7 h
same,AUC(0-t),Pharmacokinetics in mice; [7],23500 ng·h/mL
COC1CN([C@H]2COc3c(S(=O)(=O)NC(=O)Nc4c5c(cc6c4CCC6)CCC5)cnn3C2)C1 [E],Bioavailability (% F),Pharmacokinetics in mice; [7],53 % F
same,Cmax,"Pharmacokinetics in mice; Female CD-1 Mice, IV, 1 mg/kg",2830 ng/mL
same,clearance,"Pharmacokinetics in mice; Female CD-1 Mice, IV, 1 mg/kg",10.7 mL/min/kg
same,half-life,"Pharmacokinetics in mice; Female CD-1 Mice, IV, 1 mg/kg",1.6 h
same,AUC(0-t),"Pharmacokinetics in mice; Female CD-1 Mice, IV, 1 mg/kg",1570 ng·h/mL
same,Vd,"Pharmacokinetics in mice; Female CD-1 Mice, IV, 1 mg/kg",1.47 L/kg
same,Cmax,Pharmacokinetics in mice; [7],8620 ng/mL
same,half-life,Pharmacokinetics in mice; [7],1.9 h
same,AUC(0-t),Pharmacokinetics in mice; [7],8270 ng·h/mL
O=C(Nc1c2c(cc3c1CCC3)CCC2)NS(=O)(=O)c1cnn2c1OCCCC2 [drawing 515],IC50,[1]; [5],< 100 nM
same,IC50,NLRP3 inflammasome [4],< 100 nM
CC1CCOc2c(S(=O)(=O)NC(=O)Nc3c4c(cc5c3CCC5)CCC4)cnn21 (stereo not drawn) [drawing 516],IC50,[1]; [5],< 100 nM
same,IC50,NLRP3 inflammasome [4],< 100 nM
O=C(Nc1c2c(cc3c1CCC3)CCC2)NS(=O)(=O)c1cnn2c1OCC(F)C2 (stereo not drawn) [drawing 517],IC50,[1]; [5],< 100 nM
same,IC50,NLRP3 inflammasome [4],100 to 1000 nM
